The source of these data is patent publication US11819514B2, “Use of oligosaccharide riclinoctaose in preparation of drug for treating and/or preventing ischemia-reperfusion injury (IRI)” (Nanjing Southern Element Biotechnology Co., Ltd., priority 2021, dated 2023).

For data set [1], the system named is male C57/BL6J mice. The experiment in a line: HIRI mouse model: histological analysis of liver (H&E). Format: in vivo. On the procedure: (§1) The experimental animals were male C57/BL6J mice aged 6 to 8 weeks and weighed 22 g to 26 g. The mice were housed under standard experimental conditions with a 12-hour light-12-hour dark cycle with free access to water and food. The mice were anesthetized with isoflurane, the abdomen was operated on, and the blood supply to middle and left lobes of the liver was blocked with non-invasive hemostatic clips, resulting in 70% hepatic ischemia; after 30 min of ischemia, the clips were removed, and samples were collected to measure biochemical parameters after reperfusion for 6 h.
The mice were administered by intraperitoneal injection and randomly divided into four groups; a first group was a sham-operation group (sham), the animals in the sham-operation group received the same laparotomy without vascular clip occlusion; a second group was a model group (IR); a third group was a low-dosage group (LRO), with 20 mg/mL of the oligosaccharide riclinoctaose injected intraperitoneally about 4 h to 6 h before surgery; and a fourth group was a high-dosage group (HRO), with 40 mg/mL of the oligosaccharide riclinoctaose injected intraperitoneally about 4 h to 6 h before surgery. The oligosaccharide riclinoctaose drug was dissolved in a 0.9% normal saline. […]

For another data set, the system named is intestinal microflora. The following applies: cited from earlier work.
The subject of data set [2] is male C57/BL6J mice. The experiment in a line: RIRI mouse model: histological analysis of kidney (H&E, PAS). Type of data set: in vivo. The following applies: vs model group. The text has this:
(§2) The experimental animals were male C57/BL6J mice aged 6 to 8 weeks and weighed 22 g to 26 g; the mice were anesthetized with isoflurane, and the abdomen was operated on, and after the righting reflex disappeared, the mice were placed in a prone position on a mouse dissection table and fixed; under sterile conditions, the abdominal cavity was opened along a 1.5 cm longitudinal incision on both dorsal sides, the muscles were bluntly separated, and the renal pedicles on both sides were exposed; the blood flow was blocked with a non-invasive vascular clip, and the kidneys turned from red to dark purple, indicating successful ischemia. After 30 min of ischemia, the arterial clips were released, and the abdominal cavity was closed after the kidneys were restored to perfusion; after 24 h, samples were collected to measure biochemical indicators, and an RIRI model was established.
(§3) The mice were administered by intraperitoneal injection and randomly divided into four groups; a first group was a sham-operation group (sham), the animals in the sham-operation group received the same laparotomy without vascular clip occlusion; a second group was a model group (IR); a third group was a low-dosage group (LRO), with 20 mg/mL of the oligosaccharide riclinoctaose injected intraperitoneally about 4 h to 6 h before surgery; and a fourth group was a high-dosage group (HRO), with 40 mg/mL of the oligosaccharide riclinoctaose injected intraperitoneally about 4 h to 6 h before surgery. The oligosaccharide riclinoctaose drug was dissolved in a 0.9% normal saline.
Histomorphological changes in mouse kidneys were analyzed by H&E staining and PAS staining. The resected kidney tissue was immediately fixated with buffered 4% paraformaldehyde (in a PBS buffer) for histological analysis, embedded in paraffin, and sections were stained with by H&E or PAS. The necrosis and structural damages of nephrocytes were observed by a microscope.

Data set [3] deals with male C57/BL6J mice. The experiment in a line: RIRI mouse model: plasma biochemical indicators (BUN, Creatinine, LDH). Format: in vivo. As to conditions: i.p. 20 or 40 mg/mL 4 h to 6 h before surgery, 30 min ischemia, 24 h reperfusion.
Source text: as §2, with “established. […]” for “established.”
Whole blood was collected, allowed to coagulate naturally at a room temperature, centrifuged at 2,000 r/min for 10 min, and a supernatant was collected for the determination of BUN, Creatinine, and LDH. The plasma BUN, Creatinine and LDH concentrations of mice in each group were analyzed according to instructions of the plasma BUN, Creatinine, and LDH detection kits, followed by operation steps in kit instructions, and finally concentrations were determined by colorimetry at a wavelength of 510 nm or 440 nm.
Comparisons between multiple groups were statistically analyzed using a One-way ANOVA statistical method. […]

Data set [4] concerns male C57/BL6J mice. The experiment in a line: HIRI mouse model: serum enzyme activity assay (ALT, AST, LDH). As to conditions: i.p. 20 mg/mL (LRO) and 40 mg/mL (HRO) 4 h to 6 h before surgery, 30 min ischemia, 6 h reperfusion, vs model group. Format: in vivo. On the procedure:
as §1, §3
Whole blood was collected, allowed to coagulate naturally at a room temperature, centrifuged at 2,000 r/min for 10 min, and a supernatant was collected for the determination of ALT, AST and LDH enzyme activities. The activities of AST, ALT and LDH were determined by an enzyme colorimetric quantitative analysis method, according to operation steps in kit instructions, and finally concentrations were determined by colorimetry at a wavelength of 505 nm or 440 nm.
(§4) Comparisons between multiple groups were statistically analyzed using a One-way ANOVA statistical method. P<0.05 was considered to have a significant effect.

The conditions of data set [5]: cited from earlier work.
Data set [6] relates to male C57/BL6J mice. The experiment in a line: CIRI (MCAO) mouse model: neurofunctional scoring (mNSS, Longa). Type of data set: in vivo.
Source text: The experimental animals were male C57/BL6J mice aged 6 to 8 weeks and weighed 22 g to 26 g. Mice were anesthetized with isoflurane and placed on a supine heating pad. The skin was disinfected with iodine and 75% ethanol. A midline neck incision is made to expose the carotid artery […]. An external carotid artery (ECA) was isolated and occluded with two knots. An internal carotid artery (ICA) was isolated, and the MCA and ICA were clamped with microvascular clips. A small hole was cut in the ECA between the knot and a bifurcation point. A silicone rubber-coated, 30-mm-long, and 0.11-mm-diameter middle cerebral artery occlusion (MCAO) tether was introduced into the ICA. The artery was opened while sutures were inserted to block the blood vessel. A third knot on the ICA was closed and the suture was secured in a proper place. The mouse abdominal cavity was sutured, and the mice were placed in a heated cage for 30 min, and the wound was closed using small suture clips. The third knot was loosened, the filament was removed, and reperfusion was conducted for 24 h. The skin was closed and the mice were returned to individual cages.
as §3, with “neck incision” for “laparotomy”, “suture blockage;” for “clip occlusion;”
Neurofunctional scoring: the neurobehavioral functions were assessed using mNSS and Longa scores. The mNSS assessed neurological deficits through motor, reflex, sensory, and balance tests. Scores ranged from 0 (indicating no neurological deficit) to 18 (indicating the most severely-injured animal). The Longa score was determined as follows: 0 points, no neurological deficit; 1 point, the animals were unable to fully extend the contralateral forelimbs; 2 points, there was a tail scratching phenomenon when walking (circling to the opposite side); 3 points, a standing posture was unstable, falling to the opposite side; and 4 points, there was no spontaneous walking and loss of consciousness. A score of 0 to 2 was classified as mild nerve injury, while a score of 3 to 4 was classified as severe nerve injury.
as §4

[7] abbreviates: i.p. injection before surgery, 30 min occlusion, 24 h reperfusion, vs model group.

Entries after “also recorded” stand apart in the source; their conditions may differ.

Consider “D-Glcp(4,6-pyr)-β-(1→3)-D-Glcp-β-(1→3)-D-Glcp-β-(1→6)-D-Glcp-β-(1→6)-D-Glcp-β-(1→4)-D-Glcp-β-(1→4)-D-Glcp-β-(1→3)-D-Galp [oligosaccharide riclinoctaose]”, for which the “necrotic area of liver parenchyma cells (H&E staining)” value with male C57/BL6J mice [1] (i.p. 20 and 40 mg/mL before surgery, 6 h reperfusion) was “reduction of a necrotic area of liver parenchyma cells”. Also, in the data set on male C57/BL6J mice [1] (treatment groups compared with sham-operation and model groups), the “liver tissue morphology / degree of damages (H&E staining)” value was “the treatment groups and the sham-operation group have the closest tissue morphology, indicating a lesser degree of damages”. Further, the “effect on intestinal microflora as a prebiotic” value in the data set on intestinal microflora is recorded as “significantly improve the intestinal microflora”. In the data set with male C57/BL6J mice [2], the “area of cell necrosis in kidney (H&E staining)” value is on record as “the area of cell necrosis is reduced”; the “brush border shedding of renal tubule cells and degree of cell necrosis (PAS staining)” value is “significantly reduced”; the “infiltration of inflammatory factors in kidney (H&E staining)” value is reported as “the infiltration of inflammatory factors is also reduced”. Further, in the data set with male C57/BL6J mice [3], the “plasma BUN” value was “significantly decreased”, the “plasma Creatinine” value is on record as “significantly decreased” and the “plasma LDH” value is on record as “significantly decreased”. Also, in the data set with male C57/BL6J mice [4], the “ALT activity in serum” value was “decrease the AST, ALT and LDH values in a dosage-dependent manner; also recorded: significant reduction of ALT, AST, LDH activities in serum”; the “AST activity in serum” value is “decrease the AST, ALT and LDH values in a dosage-dependent manner; also recorded: significant reduction of ALT, AST, LDH activities in serum”; the “LDH activity in serum” value is “decrease the AST, ALT and LDH values in a dosage-dependent manner; also recorded: significant reduction of ALT, AST, LDH activities in serum”. In addition, the water solubility entry in data set [5] is “desirable water solubility”. In addition, in the data set with male C57/BL6J mice [6] (20 mg/mL i.p. 4 h to 6 h before surgery), the “neurobehaviour, low-dosage group (LRO)” value was “cannot fully extend the contralateral forelimbs, the mice are not as severe as those in the model group”. Moreover, the “neurobehaviour, high-dosage group (HRO)” value in the data set on male C57/BL6J mice [6] (40 mg/mL i.p. 4 h to 6 h before surgery) was “behave similarly to those in the sham-operation group (sham) without neurological deficits”. In addition, in the data set on male C57/BL6J mice [6] (setting [7]), the “neurological deficit by Longa score” value is reported as “the neurological deficit of mice can be significantly reduced” and the “neurological deficit by mNSS” value is given as “the neurological deficit of mice can be significantly reduced”.
